{"source": "patent US12629419B2", "about": "“Prevention or mitigation of T-cell engaging agent-related adverse effects” (Hoffmann-La Roche Inc., priority 2020, dated 2026)", "key": {"WSU DLCL2 tumor cells": {"test_system": "WSU DLCL2 tumor cells", "test": "killing assay with PBMCs, CTV labelled WSU DLCL2 tumor cells and CD20-TCB", "assay_type": "cell-based", "settings": "24 hours", "protocol": "FIG. 13. In vitro killing assay set-up.\nFIG. 14. […] At 24 hours, the tumor cells and PBMCs from technical replicates were pooled and stained with a LIVE/DEAD™ Near-IR dead cell dye to allow exclusion of dead CTV labelled WSU DLCL2 tumor cells by flow cytometry. Mean of n=3 donors+/−SEM.\n(§1) A similar experiment was conducted with another TCB. WSU DLCL2 cells were co-cultured together with PBMCs in the presence of 1 nM CD20-TCB (SEQ ID NOs 4-11, 24-35), and escalating sirolimus doses ranging from 0 nM to 1000 nM (FIG. 13).\n(§2) A similar experiment was conducted with another TCB. […] The killing of B cells was measured as a readout for the impact of the various compounds on TCB efficacy at 24 h (FIGS. 27 and 28). […] Lastly, the levels of cytokines (TNF-α, IFN-γ, IL-2, IL-6, IL-4, IL-10, GM-CSF and IL-1β) were analyzed by Luminex at assay endpoint to assess the impact of the different treatments on TCB-induced cytokine release (FIGS. 32 and 33).\n(§3) At 24 hours, tumor cell killing was measured by flow cytometry by exclusion of dead CTV cells. The supernatants were collected and cytokines were measured by Luminex."}, "SUDLH-8 tumor cells": {"test_system": "SUDLH-8 tumor cells", "test": "killing assay with PBMCs, CTV labelled SUDLH-8 tumor cells and CD19-TCB", "assay_type": "cell-based", "settings": "24 hrs; 100 nM kinase inhibitors or dexamethasone, 5 μg/mL antibodies", "protocol": "FIG. 64. In vitro killing assay set-up. PBMCs were co-cultured with CellTrace™ Violet (CTV) labelled SUDLH-8 tumor cells (E:T=10:1) in the presence of escalating concentrations of CD19-TCB in media supplemented with the different kinase inhibitors (100 nM) for 24 hrs.\nFIG. 69. In vitro killing assay set-up. PBMCs were co-cultured with CTV labelled SUDLH-8 cells (E:T=10:1) in the presence of escalating concentrations of CD19-TCB in media supplemented with the different JAK inhibitors (100 nM) for 24 hrs.\nFIG. 73. In vitro killing assay set-up.\n(§4) PBMCs were co-cultured together with CellTrace™ Violet (CTV) labelled SUDLH-8 tumor cells and escalating concentrations of CD19-TCB in the presence of the different kinase inhibitors, including also the Src inhibitor dasatinib (FIG. 64). At assay endpoint (24 hrs), the killing of CTV labelled SUDLH-8 cells was measured by flow cytometry by exclusion of the dead SUDLH-8 cells with a Live/Dead stain. […] Lastly, the levels of cytokines were measured in the supernatants of the assay to evaluate the effect of mTOR, JAK and Src inhibitors on CD19-TCB-induced cytokine release.\n(§5) At assay endpoint (24 hrs), the killing of CTV labelled SUDLH-8 cells was measured by flow cytometry by exclusion of the dead SUDLH-8 cells with a Live/Dead stain. […] Lastly, the levels of cytokines were measured in the supernatants of the assay to assess the effect of the JAK inhibitors on CD19-TCB-induced cytokine release.\n(§6) At assay endpoint (24 hrs), the killing of CTV labelled SUDLH-8 cells was measured by flow cytometry by exclusion of the dead SUDLH-8 cells with a Live/Dead stain to evaluate the effect of the different mitigation approaches on CD19-TCB-dependent killing. […] Lastly, the levels of cytokines were measured in the supernatants of the assay to address the effect of the JAK inhibitors on CD19-TCB-induced cytokine release."}, "[1]": {"test_system": "A375 NucLight Red (NLR) target-cells", "test": "killing assay with PBMCs, A375 NLR target cells and MAGEA4-TCB (Incucyte)", "assay_type": "cell-based", "settings": "25 nM MAGEA4-TCB; 0 nM to 100 nM"}, "CD4+ and CD8+ T cells [2]": {"test_system": "CD4+ and CD8+ T cells", "test": "T cell activation (CD25, CD69) in CD20-TCB killing assay", "assay_type": "cell-based", "settings": "24 hours; CD20-TCB; concentration of 1 μM", "protocol": "as §1\n(§7) A similar experiment was conducted with CD20-TCB.\n(§8) A similar experiment was conducted with CD20-TCB. WSU DLCL2 cells were co-cultured together with PBMCs in the presence of 1 nM CD20-TCB, and escalating everolimus doses ranging from 0 nM to 1000 nM (FIG. 13).\n(§9) A similar experiment was conducted with CD20-TCB. WSU DLCL2 cells were co-cultured together with PBMCs in the presence of 1 nM CD20-TCB, and escalating ruxolitinib doses ranging from 0 nM to 1000 nM (FIG. 13).\nas §2, §3"}, "[3]": {"test_system": "MAGEA4-TCB-induced cytokine release", "test": "MAGEA4-TCB-induced cytokine release", "assay_type": "cell-based", "settings": "25 nM MAGEA4-TCB; 0 nM to 100 nM", "protocol": "FIG. 45. Effect of escalating concentrations (c) of ruxolitinib on IFN-γ (A), IL-2 (B), TNF-α (C), GM-CSF (D), IL-6 (E), IL-1β (F), IL-8 (G), MCP-1 (H) and IL-10 (I) levels induced by 8 nM MAGEA4-TCB. At 72 hours, the supernatants were collected and cytokines were analyzed by cytometric bead array (CBA). Mean of technical replicates+/−SD for 1 representative donor.\nFIG. 47. […] At 72 hours, the supernatants were collected and cytokines were analyzed by CBA. Mean of technical replicates+/−SD for 1 representative donor.\nThe effect of ruxolitinib on TCB-induced tumor cell killing and cytokine release was assessed using an additional TCB, the MAGEA4-TCB (SEQ ID NOs 37-56)."}, "CD4+ and CD8+ T cells [4]": {"test_system": "CD4+ and CD8+ T cells", "test": "T cell activation (CD25, CD69 by flow cytometry) in CEA-TCB killing assay", "assay_type": "cell-based", "settings": "10 nM CEA-TCB"}, "[5]": {"test_system": "CD20-TCB-induced cytokine release", "test": "CD20-TCB-induced cytokine release (Luminex)", "assay_type": "cell-based", "settings": "24 hours; CD20-TCB; escalating doses", "protocol": "A similar experiment was conducted with another TCB.\nas §7, §8, §9, §2, §3"}, "[6]": {"test_system": "CD19-TCB-induced cytokine release", "test": "CD19-TCB-induced cytokine release in SUDLH-8 assay (Luminex)", "assay_type": "cell-based", "settings": "24 hrs; 100 nM inhibitor", "protocol": "as §4, §5, §6"}, "CD4+ and CD8+ T cells [7]": {"test_system": "CD4+ and CD8+ T cells", "test": "T cell activation (CD25, CD69) in CD20-TCB killing assay", "assay_type": "cell-based", "settings": "24 hours, concentrations 0 nM to 100 nM"}, "[8]": {"settings": "cited from earlier work"}, "[9]": {"test_system": "MKN45 NucLight Red (NLR) target cells", "test": "killing assay with PBMCs, MKN45 NLR target cells and CEA-TCB (Incucyte)", "assay_type": "cell-based"}, "[10]": {"test_system": "CEA-TCB-induced cytokine release", "test": "CEA-TCB-induced cytokine release (Luminex, supernatants)", "settings": "72 hrs; 10 nM CEA-TCB; concentrations 50 nM to 1 μM", "description": "The levels of cytokines were measured by Luminex in the supernatants of the assay to determine the impact of the different compounds on CEA-TCB-induced cytokine release."}, "CD20+ B cells": {"test_system": "CD20+ B cells", "test": "CD19-TCB-induced B cell depletion in humanized NSG mice", "assay_type": "in vivo", "from_the_text": "FIG. 81. In vivo experiment timelines and dosing schedule.\nTo best reproduce the pharmacodynamic profile of ruxolitinib, dasatinib and sirolimus in the clinic and to verify whether the resulting exposure would be sufficient to prevent CD19-TCB-induced cytokine release, dasatinib and ruxolitinib were given per os twice per day, and sirolimus was given per os twice per day on day 1 and then once per day.\nAt 48 hrs and 72 hrs, blood was collected by tail-vein bleeding and the CD20+ B cell count was measured by flow cytometry (FIGS. 82A and B) to assess the effect of the different treatments on CD19-TCB-induced B cell depletion. […] Its half-life being around 6-7 hrs and dasatinib being given only twice per day, a lack of exposure could likely explain that CD19-TCB was partially active, resulting in B cell depletion. At experiment termination (72 hrs), spleens were collected and the B cell count was measured by flow-cytometry (FIG. 83). […] However, their inhibitory effect was stronger than methylprednisolone (FIG. 83)."}}, "note": "Entries after “also recorded” stand apart in the source; their conditions may differ.", "data": [{"molecule": "CCS(=O)(=O)N1CC(CC#N)(n2cc(-c3ncnc4[nH]ccc34)cn2)C1", "note": "[baricitinib, Baricitinib]", "values": [{"measurement": "CD20-TCB induced tumor cell killing", "setting": "WSU DLCL2 tumor cells; concentration of 1 μM", "result": "slightly reduced"}, {"measurement": "CD20-TCB-induced tumor cell killing", "setting": "WSU DLCL2 tumor cells; concentrations 0 nM to 100 nM", "result": "did not impair; also recorded: did not prevent"}, {"measurement": "CD19-TCB-dependent killing of CTV labelled SUDLH-8 cells", "setting": "SUDLH-8 tumor cells", "result": "did not prevent"}, {"measurement": "MAGEA4-TCB-induced tumor cell killing", "setting": "[1]", "result": "comparable to ruxolitinib"}, {"measurement": "T cell activation", "setting": "CD4+ and CD8+ T cells [2]", "result": "slightly reduced"}, {"measurement": "MAGEA4-TCB-induced GM-CSF, IL-2, IFN-γ, TNF-α, IL-1β and IL-6 release", "setting": "[3]", "result": "comparable to ruxolitinib"}, {"measurement": "expression of CD25 on CD4+ and CD8+ T cells", "setting": "CD4+ and CD8+ T cells [4]; 72 hours, escalating concentrations, comparably to ruxolitinib", "result": "reduced"}, {"measurement": "levels of IFN-γ, TNF-α, GM-CSF, IL-6 and IL-8", "setting": "[5]", "result": "reduced"}, {"measurement": "CD19-TCB-induced IFN-γ, TNF-α, IL-6 and GM-CSF release", "setting": "[6]", "result": "prevented"}, {"measurement": "CD19-TCB-induced cytokine release", "setting": "[6]", "result": "as potent as ruxolitinib"}, {"measurement": "T cell activation (CD25 and CD69 on CD4+ and CD8+ T cells)", "setting": "CD4+ and CD8+ T cells [7]", "result": "did not impair; also recorded: did not prevent"}]}, {"molecule": "Cc1nc(Nc2ncc(C(=O)Nc3c(C)cccc3Cl)s2)cc(N2CCN(CCO)CC2)n1", "note": "[dasatinib]", "values": [{"measurement": "half-life", "setting": "[8]", "result": "6 to 7", "unit": "h"}]}, {"molecule": "Cc1cnc(Nc2ccc(OCCN3CCCC3)cc2)nc1Nc1cccc(S(=O)(=O)NC(C)(C)C)c1", "note": "[fedratinib, Fedratinib]", "values": [{"measurement": "expression of CD69 and CD25 on CD4+ T cells and CD8+ T cells", "setting": "CD4+ and CD8+ T cells [4]; 72 hrs, concentrations below 1 μM", "result": "did not affect"}, {"measurement": "MKN45 NLR target cell killing by 10 nM CEA-TCB", "setting": "[9]; doses below 1 μM", "result": "only a minor effect"}, {"measurement": "MKN45 NLR target cell killing by 10 nM CEA-TCB", "setting": "[9]; inhibitor doses 12.5 nM to 1 μM, 50 000 PBMCs: 5 000 target cells, Incucyte", "result": "only partially reduced"}, {"measurement": "levels of IFN-γ, IL-2, TNF-α, IL-6 and IL-8", "setting": "[10]", "result": "reduced"}]}, {"molecule": "C[C@@H]1CCN(C(=O)CC#N)C[C@@H]1N(C)c1ncnc2[nH]ccc12", "note": "[tofacitinib, Tofacitinib]", "values": [{"measurement": "CD19-TCB-dependent killing of CTV labelled SUDLH-8 cells", "setting": "SUDLH-8 tumor cells", "result": "did not prevent"}, {"measurement": "CD19-TCB-induced IFN-γ, TNF-α, IL-6 and GM-CSF release", "setting": "[6]", "result": "prevented"}, {"measurement": "CD19-TCB-induced cytokine release", "setting": "[6]", "result": "as potent as ruxolitinib"}]}, {"molecule": "obinutuzumab", "values": [{"measurement": "depletion of B cells in blood (CD20+ B cell count)", "setting": "CD20+ B cells; 48 hrs and 72 hrs, 0.5 mg/kg CD19-TCB i.v., obinutuzumab pre-treatment 30 mg/kg i.v.", "result": "complete depletion"}, {"measurement": "CD19-TCB-induced CD20+ B cell depletion in the spleen", "setting": "CD20+ B cells; 72 hrs (termination)", "result": "complete depletion"}]}]}
